Laboratory results: patent publication US20240181022A1, “AMURINS LYSINS, AND LYSIN-ANTIMICROBIAL PEPTIDE (AMP) CONSTRUCTS ACTIVE AGAINST GRAM-NEGATIVE BACTERIA” (priority 2021, published 2024)
≈ marks a conversion by molar mass, not a printed value. Where a SMILES comes first, the peptide text is derived from it. [ ]: non-standard residue; d: D form.

Experiments:
P. apista = test: MIC by broth microdilution against P. apista; assay type: cell-based, Pandoraea apista; settings: P. apista isolates
Description: (§1) MIC values were determined using a modification of the standard broth microdilution reference method defined by the Clinical and Laboratory Standards Institute (CLSI), CLSL. 2015. Methods for Dilution Antimicrobial Susceptibility Tests for Bacteria That Grow Aerobically; Approved Standard-10th Edition. Clinical and Laboratory Standards Institute, Wayne, PA. The modification was based on the replacement of Mueller Hinton Broth with either CAA media (with and without NaCl) or CAA supplemented with 2.5% human serum. MIC is the minimum concentration of peptide sufficient to suppress at least 80% of the bacterial growth compared to control.
(§2) Based on these nine most prevalent strains, direct lytic agents, including GN370, AM1, AM2, and AM3, were evaluated against various isolates from each of the 9 strains. MICs and MBECs (Example 3) were determined, and a sputum inhibition test was conducted, as described below in Example 5.
(§3) The MICs for were determined as described below using the broth microdilution method for meropenem, GN370, AM1, AM2, and AM3. The results are shown below in Tables 8-12.

[1] = tested on: Gram-negative bacteria (including P. aeruginosa, E. cloacae, K. pneumoniae, E. coli, and A. baumannii); test: Inner membrane depolarization (diSC3-5 release); assay type: cell-based; settings: equivalent or superior to melittin, LL37, RI-18, and PMBN
Source text: The mechanism of action of Chp peptides disclosed herein can also be evaluated by measuring the depolarization of the inner membrane of Gram-negative bacteria, including MDR and XDR strains. The inner membrane comprises […] phospholipids such as cardiolipin, phosphatidylglycerol, and phosphatidylserine. This creates a net negative charge at physiological pH, which is believed to enhance the binding of cationic peptides, including the Chp peptides disclosed herein. Upon permeabilization of the outer membrane, the ability of Chp peptides to induce dissipation of the cytoplasmic membrane electrical potential gradient (Ay) may be examined, for example by following the release of 3,3′-dipropylthiadicarbocyanine (diSC3-5) as a function of time compared to an untreated control. DiSC3-5 is a fluorophore that is a caged cation concentrated within the bacterial inner membrane and under the influence of the bacterial membrane electrical potential gradient. At high concentrations, diSC3-5 self-quenches, leading to the suppression of fluorescence. When the inner membrane deteriorates or becomes leaky for cations, including protons, the Δψ dissipates, which leads to a release of diSC3-5 and a subsequent increase in fluorescence. […] Without wishing to be bound by theory, it is believed that the adsorption and binding of Chp peptides to the inner membrane and insertion into the lipid bilayer results in membrane permeabilization and pore/ion channel formation, which is concomitant with the collapse of the membrane's electrical potential.

M. smegmatis = test: MIC against M. smegmatis; assay type: cell-based, Mycobacterium smegmatis; settings: M. smegmatis (MC 155); CAAT media
B. multivorans [2] = tested on: B. multivorans
Description: (§4) Biofilms are then washed and treated with e.g., a 2-fold dilution series of the lysin in TSBg at e.g., 37° C. for 24 hours. After treatment, wells are washed, air-dried at e.g., 37° C. and stained with e.g., 0.05% crystal violet for 10 minutes.
(§5) The antibiofilm activity of GN370, AM1, AM2, and AM3 was evaluated against various Gram-negative bacteria prevalent in cystic fibrosis patients, including P. aeruginosa, S. maltophilia, and A. xylosoxidans.
(§6) The MBEC (after 2-hour treatments) was determined as described in Jones and Wozniak, PsI Produced by Mucoid Pseudomonas aeruginosa Contributes to the Establishment of Biofilms and Immune Evasion, Am. […] Microbiol.

A. xylosoxidans [3] = tested on: A. xylosoxidans
Description: as §4, §5, §6

S. maltophilia [4] = tested on: S. maltophilia
Description: as §4, §5, §6

B. multivorans [5] = test: MIC by broth microdilution against B. multivorans; assay type: cell-based, Burkholderia multivorans; settings: B. multivorans isolates
Description: as §1, §2, §3

A. xylosoxidans [6] = test: Time-kill assay in cystic fibrosis patient sputum, A. xylosoxidans; assay type: cell-based, Achromobacter xylosoxidans
Source text: Sputum from 5 cystic fibrosis patients was pooled. The resulting mixture was not filtered, as it was very dense and not amenable to sterilization by filtration. Sputum is known to be a complex mixture of DNA, carbohydrates, and lipids ([…], 2016). As used herein, the term “sputum” refers to the mucus present in the respiratory tract of an animal, such as a human. Sputum may increase in thickness due to the irritation or infection, including bacterial infection, and in some instances, may be expelled by the animal while coughing. In certain instances, cystic fibrosis may be characterized by the presence of a thick, sticky mucus or sputum present in the lungs of cystic fibrosis patients. The activity of GN370, AM1, AM2, AM3, and meropenem was determined in the sputum using a time-kill assay format as disclosed in Zhang et al., Antimicrobial peptide therapeutics for cystic fibrosis, Antimicrobial Agents Chemother. 2005; 49(7):2921-2927. […] Untreated controls were included in addition to pretreatment plating (t=0) for a baseline CFU determination. Activity was also determined in the absence of sputum for comparison to activity observed in the presence of sputum.

B. cenocepacia = assay type: cell-based, Burkholderia cenocepacia
Description: The MBEC (after 2-hour treatments) was determined as described in Jones and Wozniak, PsI Produced by Mucoid Pseudomonas aeruginosa Contributes to the Establishment of Biofilms and Immune Evasion, Am. Soc. Microbiol. 2017, 8(3):e00864-17. Meropenem and tobramycin were included as controls and were both poorly active, with MBEC90 values of >256 μg/mL (data not shown).

A. ruhlandii = test: MIC by broth microdilution against A. ruhlandii; assay type: cell-based, Achromobacter ruhlandii; settings: A. ruhlandii isolates
Description: as §1, §2, §3

S. maltophilia [7] = tested on: S. maltophilia; remark: listed apart in the source

For `CC[C@H](C)[C@H](NC(=O)[C@@H](CCCNC(=N)N)NC(=O)[C@H](Cc1ccccc1)NC(=O)CNC(=O)CNC(=O)[C@@H](CCCNC(=N)N)NC(=O)[C@H](CCSC)NC(=O)[C@@H]1CCCN1C(=O)[C@@H](CCCNC(=N)N)NC(=O)[C@H](C)NC(=O)[C@@H](CCCNC(=N)N)NC(=O)[C@H](CC(C)C)NC(=O)[C@H](CC(N)=O)NC(=O)[C@@H](CCCNC(=N)N)NC(=O)[C@@H](CCCCN)NC(=O)[C@@H](CCCCN)NC(=O)[C@@H](NC(=O)[C@H](CC(N)=O)NC(=O)[C@@H](NC(=O)[C@H](C)NC(=O)CNC(=O)[C@@H](CCCNC(=N)N)NC(=O)[C@@H](NC(=O)[C@H](Cc1ccccc1)NC(=O)[C@@H](NC(=O)[C@@H](CCCCN)NC(=O)[C@@H](CCCNC(=N)N)NC(=O)[C@H](CO)NC(=O)[C@@H](CCCCN)NC(=O)[C@@H](CCCCN)NC(=O)[C@@H](CCCCN)NC(=O)[C@H](CO)NC(=O)[C@H](CC(C)C)NC(=O)[C@@H](CCCCN)NC(=O)[C@@H](CCCNC(=N)N)NC(=O)[C@@H](CCCNC(=N)N)NC(=O)[C@@H](CCCCN)NC(=O)[C@@H](N)CCSC)[C@@H](C)CC)[C@@H](C)O)C(C)C)C(C)C)C(=O)O` [AM3] (H-M[dK][dR][dR][dK]LS[dK][dK][dK]S[dR][dK]IFT[dR]GAVNV[dK][dK][dR]NL[dR]A[dR]PM[dR]GGF[dR]I-OH; N-terminus and C-terminus assumed), the MIC50 (P. apista) was greater than 128 µg/mL, the MIC90 (P. apista) was greater than 128 µg/mL and the “inner membrane depolarization (diSC3-5)” value [1] was “dose-dependent increase in membrane depolarization”. The MIC (M. smegmatis) was 1 µg/mL (≈ 0.219 µM), the MBEC50 (B. multivorans [2]) was 2 µg/mL and the MBEC90 (B. multivorans [2]) was 4 µg/mL. For the same compound, the “MBEC Range” value (B. multivorans [2]) was 1 to 8 µg/mL, the MBEC50 (A. xylosoxidans [3]) was 1 µg/mL and the MBEC90 (A. xylosoxidans [3]) was 2 µg/mL. The “MBEC Range” value (A. xylosoxidans [3]) was 0.125 to 4 µg/mL, the “antibiofilm activity (MBEC) against A. xylosoxidans” value (A. xylosoxidans [3]; 2-hour treatments) was “primarily active” and the MBEC50 (S. maltophilia [4]) was 1 µg/mL. For the same compound, the MBEC90 (S. maltophilia [4]) was 2 µg/mL, the “MBEC Range” value (S. maltophilia [4]) was 0.125 to 16 µg/mL and the MIC50 (B. multivorans [5]) was greater than 128 µg/mL. The MIC90 (B. multivorans [5]) was greater than 128 µg/mL, the “effect of sputum on antibacterial activity” value (A. xylosoxidans [6]; 10% CF sputum vs no sputum) was “none of GN370, AM1, AM2, and AM3 was inhibited” and the “Log10 CFU/mL of sputum” value (A. xylosoxidans [6]; absence of sputum, 1 hr) was 4.3 Log10 CFU/mL of sputum. For the same compound, the “Log10 CFU/mL of sputum” value (A. xylosoxidans [6]; absence of sputum, 3 hr) was 3.3 Log10 CFU/mL of sputum, the “Log10 CFU/mL of sputum” value (A. xylosoxidans [6]; absence of sputum, 24 hr) was 2.3 Log10 CFU/mL of sputum and the “Log10 CFU/mL of sputum” value (A. xylosoxidans [6]; presence of 10% sputum, 1 hr) was 2.3 Log10 CFU/mL of sputum. For the same compound, the “Log10 CFU/mL of sputum” value (A. xylosoxidans [6]; presence of 10% sputum, 3 hr) was 2.3 Log10 CFU/mL of sputum, the “Log10 CFU/mL of sputum” value (A. xylosoxidans [6]; presence of 10% sputum, 24 hr) was 2.3 Log10 CFU/mL of sputum and the “killing by 1 hour, maintained at 24 hours” value (A. xylosoxidans [6]; time-kill) was “complete killing”. For the same compound, the MBEC50 (B. cenocepacia) was 16 µg/mL, the MBEC90 (B. cenocepacia) was 32 µg/mL and the “MBEC Range” value (B. cenocepacia) was 1 to 32 µg/mL. It also gave an MIC50 (A. ruhlandii) of 1 µg/mL (≈ 0.219 µM), an MIC90 (A. ruhlandii) greater than 128 µg/mL and an MIC50 (S. maltophilia [7]; S. maltophilia isolates) of 0.5 µg/mL (≈ 0.109 µM). The MIC90 (S. maltophilia [7]; S. maltophilia isolates) was 1 µg/mL (≈ 0.219 µM), the “MIC Range” value (S. maltophilia [7]; S. maltophilia isolates, in µg/mL) was 0.016-2 and the MIC (S. maltophilia [7]; S. maltophilia test organism of the sputum time-kill assay) was “AM3 (MIC = 0.25)”. For the same compound, the “activity (MIC) against S. maltophilia isolates” value (S. maltophilia [7]; all tested isolates, Tables 8-12) was “highly active”.
